Reference: the supplement of paper PMC10307832

What was measured:
Assay in all cases: relative viability (nuclei count vs DMSO), 5 days (fraction); higher = more cells survive
Elesclomol = compound: CN(NC(=O)CC(=O)NN(C)C(=S)c1ccccc1)C(=S)c1ccccc1 [Elesclomol]
How it was run: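 Cells of lung cancer lines were placed in 1536-well plates and kept overnight at 37 °C. Pinning then delivered five library-drug doses (not always all listed), spaced by √10, onto plates anchored with vehicle, and the cells were left 5 days without changing medium. One step fixed, permeabilised and stained them with Hoechst, and MetaXpress counted nuclei in 4× images. Viability, as a median over plates, is treated-well nuclei divided by vehicle-well nuclei, with acceptance only at control CV below 25% and at least one doubling.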

Elesclomol + Olaparib = compound: CN(NC(=O)CC(=O)NN(C)C(=S)c1ccccc1)C(=S)c1ccccc1 [Elesclomol] + O=C(c1cc(Cc2n[nH]c(=O)c3ccccc23)ccc1F)N1CCN(C(=O)C2CC2)CC1 [Olaparib] (partner 8 µM)
How it was run: (§1)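 One day after seeding in 1536-well plates, lung cancer cell lines were dosed by pin tool. Dosing was either single-drug or a fixed anchor-drug dose plus five library-drug doses (not always all listed) in √10 steps. After 5 days, nuclei were stained in one fix-and-stain step and counted on 4× images, and relative viability is the nuclei count of treated wells over that of vehicle wells, given as the median of duplicate plates.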

Elesclomol + Crizotinib = compound: CN(NC(=O)CC(=O)NN(C)C(=S)c1ccccc1)C(=S)c1ccccc1 [Elesclomol] + C[C@@H](Oc1cc(-c2cnn(C3CCNCC3)c2)cnc1N)c1c(Cl)ccc(F)c1Cl [Crizotinib] (partner 1 µM)
How it was run: as §1

Elesclomol + Alpelisib = compound: CN(NC(=O)CC(=O)NN(C)C(=S)c1ccccc1)C(=S)c1ccccc1 [Elesclomol] + Cc1nc(NC(=O)N2CCC[C@H]2C(N)=O)sc1-c1ccnc(C(C)(C)C(F)(F)F)c1 [Alpelisib] (partner 2 µM)
How it was run: as §1

Elesclomol + Dasatinib = compound: CN(NC(=O)CC(=O)NN(C)C(=S)c1ccccc1)C(=S)c1ccccc1 [Elesclomol] + Cc1nc(Nc2ncc(C(=O)Nc3c(C)cccc3Cl)s2)cc(N2CCN(CCO)CC2)n1 [Dasatinib] (partner 0.075 µM)
How it was run: as §1

Row | Cell Line | relative viability (Elesclomol; 0.003162 µM) | relative viability (Elesclomol; 0.01 µM) | relative viability (Elesclomol; 0.03162 µM) | relative viability (Elesclomol; 0.1 µM) | relative viability (Elesclomol + Olaparib; first compound 0.003162 µM) | relative viability (Elesclomol + Olaparib; first compound 0.01 µM) | relative viability (Elesclomol + Olaparib; first compound 0.03162 µM) | relative viability (Elesclomol + Olaparib; first compound 0.1 µM) | relative viability (Elesclomol + Crizotinib; first compound 0.003162 µM) | relative viability (Elesclomol + Crizotinib; first compound 0.01 µM) | relative viability (Elesclomol + Crizotinib; first compound 0.03162 µM) | relative viability (Elesclomol + Crizotinib; first compound 0.1 µM) | relative viability (Elesclomol + Alpelisib; first compound 0.003162 µM) | relative viability (Elesclomol + Alpelisib; first compound 0.01 µM) | relative viability (Elesclomol + Alpelisib; first compound 0.03162 µM) | relative viability (Elesclomol + Alpelisib; first compound 0.1 µM) | relative viability (Elesclomol + Dasatinib; first compound 0.003162 µM) | relative viability (Elesclomol + Dasatinib; first compound 0.01 µM) | relative viability (Elesclomol + Dasatinib; first compound 0.03162 µM) | relative viability (Elesclomol + Dasatinib; first compound 0.1 µM)
1 | NCI-H2126 | 0.962 | 0.934 | 0.807 | 0.556 | 0.913 | 0.886 | 0.887 | 0.777 | 1.02 | 1.05 | 1.03 | 1.02 | 0.719 | 0.713 | 0.717 | 0.739 | 0.659 | 0.512 | 0.3 | 0.215
2 | NCI-H2170 | 0.967 | 0.938 | 0.986 | 0.657 | 0.55 | 0.558 | 0.638 | 0.344 | 1.26 | 0.956 | 1.17 | 0.653 | 0.808 | 0.722 | 0.708 | 0.403 | 0.546 | 0.539 | 0.484 | 0.43
3 | NCI-H2228 | 0.923 | 0.881 | 0.435 | 0.078 | 0.537 | 0.365 | 0.195 | 0.0479 | 0.381 | 0.312 | 0.143 | 0.0592 | 0.569 | 0.5 | 0.198 | 0.0389 | 0.545 | 0.269 | 0.2 | 0.039
4 | NCI-H2347 | 1.01 | 0.918 | 0.858 | 0.616 | 0.591 | 0.463 | 0.525 | 0.339 | 0.626 | 0.503 | 0.416 | 0.433 | 1.04 | 0.928 | 0.955 | 0.513 | 0.29 | 0.373 | 0.287 | 0.185
5 | NCI-H2405 | 1.08 | 0.581 | 0.362 | 0.384 | 0.737 | 0.693 | 0.386 | 0.353 | 0.785 | 0.565 | 0.306 | 0.307 | 0.783 | 0.312 | 0.223 | 0.224 | 0.227 | 0.231 | 0.222 | 0.203
6 | NCI-H3122 | 0.987 | 1 | 0.957 | 0.349 | 0.606 | 0.665 | 0.563 | 0.105 | 0.253 | 0.329 | 0.296 | 0.217 | 0.706 | 0.759 | 0.758 | 0.159 | 0.836 | 0.947 | 0.587 | 0.0775
7 | PC-3 [JPC-3] | 1.06 | 0.892 | 1.04 | 0.665 | 1.13 | 0.968 | 0.728 | 0.627 | 0.972 | 0.959 | 1.02 | 0.743 | 0.981 | 0.958 | 1.04 | 0.778 | 0.913 | 0.914 | 1.05 | 0.647
8 | PC-14 | 0.923 | 0.261 | 0.0507 | 0.039 | 0.287 | 0.0846 | 0.0176 | 0.0205 | 0.918 | 0.526 | 0.203 | 0.0548 | 0.913 | 0.558 | 0.0506 | 0.0344 | 0.0703 | 0.0327 | 0.0099 | 0.0111
9 | RERF-LC-KJ | 0.816 | 0.493 | 0.316 | 0.311 | 0.613 | 0.473 | 0.326 | 0.323 | 0.832 | 0.473 | 0.373 | 0.336 | 0.702 | 0.352 | 0.252 | 0.275 | 0.37 | 0.326 | 0.255 | 0.157
10 | SK-LU-1 | 1.07 | 0.779 | 0.659 | 0.287 | 0.468 | 0.373 | 0.378 | 0.249 | 0.904 | 0.677 | 0.362 | 0.141 | 0.987 | 0.674 | 0.294 | 0.1 | 0.199 | 0.197 | 0.161 | 0.0738
11 | SK-MES-1 | 1.05 | 0.76 | 0.794 | 0.489 | 0.713 | 0.656 | 0.339 | 0.231 | 1.06 | 0.887 | 0.964 | 0.625 | 0.854 | 0.502 | 0.679 | 0.279 | 0.413 | 0.25 | 0.187 | 0.148
12 | SW 1573 | 0.795 | 0.267 | 0.121 | 0.0819 | 0.201 | 0.146 | 0.0695 | 0.0085 | 0.806 | 0.344 | 0.147 | 0.128 | 0.728 | 0.211 | 0.143 | 0.0815 | 0.192 | 0.094 | 0.043 | 0.0143
13 | UMC-11 | 1.05 | 0.939 | 0.709 | 0.612 | 0.54 | 0.338 | 0.279 | 0.266 | 0.649 | 0.445 | 0.343 | 0.183 | 0.949 | 0.931 | 0.488 | 0.363 | 0.439 | 0.423 | 0.374 | 0.235
